Results as given in patent US8143426B2, “IAP inhibitors” (TetraLogic Pharmaceuticals Corporation, priority 2006, dated 2012).

molecular target: T1, XIAP BIR3 (Homo sapiens, UniProt P98170); assay: Fluorescence polarization binding of IAP antagonists to IAP-BIR3 (competition with AbuRPF-K(5-Fam)-NH2); conditions: Table 1, monomeric IAP antagonists (sugar-modified)
T1 construct: 40 nM of an IAP-BIR3
Protocol: The binding affinity of illustrative compounds of the present invention to an IAP was determined substantially as described by Nikolovska-Coleska, Z. et. al. (Analytical Biochemistry (2004), vol. 332:261-273) using a variety of fluorogenic substrates and is reported as a Kd value. Briefly, various concentrations of IAP antagonists were mixed with 5 nM fluorescently labeled peptide (AbuRPF-K(5-Fam)-NH2) and 40 nM of an IAP-BIR3 for 15 min at RT in […] of 0.1M Potassium Phosphate buffer, pH 7.5 containing […] bovine g-globulin. Following incubation, the polarization values (mP) were measured on a Victor2V using a 485 nm excitation filter and a 520 nm emission filter. IC50 values were determined from the plot using nonlinear least-squares analysis using GraphPad Prism.

T1 sequence (P98170 241-356 limits assumed): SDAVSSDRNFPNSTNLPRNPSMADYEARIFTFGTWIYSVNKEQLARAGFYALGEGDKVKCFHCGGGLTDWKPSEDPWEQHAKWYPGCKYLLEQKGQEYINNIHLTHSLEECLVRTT

| Structure (SMILES) | Kd [nM] |
| --- | --- |
| CNC(C)C(=O)NC(C(=O)N1CCCC1Cc1cn(C2OC(C)C(O)C(O)C2O)c2cc(F)ccc12)C1CCCCC1 (centres unmarked) [G] | < 100 |
| CNC(C)C(=O)NC(C(=O)N1CCCC1Cc1cn(C2OC(C)C(O)C(O)C2O)c2cc(F)ccc12)C(C)C (centres unmarked) [H] | < 100 |
| CNC(C)C(=O)NC(C(=O)N1CCCC1Cc1cn(C2OC(C)C(O)C(O)C2O)c2cc(F)ccc12)C(C)(C)C (centres unmarked) [F] | < 100 |
| CNC(C)C(=O)NC(C(=O)N1CCCC1Cc1c(-c2ccc(F)cc2)n(C2OCC(O)C(O)C2O)c2cc(F)ccc12)C(C)(C)C (centres unmarked) [Compound A] | < 100 |
| CN[C@@H](C)C(=O)N[C@H](C(=O)N1CCC[C@H]1Cc1c(-c2ccc(F)cc2)n(C2OC[C@@H](O)[C@H](O)[C@H]2O)c2cc(F)ccc12)C(C)C (some centres unmarked) [B] | < 100 |

Second part, the molecule after the results:

| Kd [nM] | Structure (SMILES) |
| --- | --- |
| < 100 | CN[C@@H](C)C(=O)N[C@H](C(=O)N1CCC[C@H]1Cc1c(-c2ccc(F)cc2)n(C2O[C@@H](C)[C@@H](O)[C@@H](O)[C@@H]2O)c2cc(F)ccc12)[C@@H](C)OC (some centres unmarked) [O] |
| < 100 | CNC(C)C(=O)NC(C(=O)N1CC(O)CC1Cc1c(-c2ccc(F)cc2)n(C2OC(C)C(O)C(O)C2O)c2cc(F)ccc12)C(C)(C)C (centres unmarked) [T] |
| < 100 | CN[C@@H](C)C(=O)N[C@H](C(=O)N1CCC[C@H]1Cc1cn(C2OC[C@@H](O)[C@H](O)[C@H]2O)c2cc(F)ccc12)C(C)(C)C (some centres unmarked) [N] |
| < 100 | CNC(C)C(=O)NC(C(=O)N1CC(O)CC1Cc1c(-c2ccc(F)cc2)n(C2OC(C)C(O)C(O)C2O)c2cc(F)ccc12)C(C)OC (centres unmarked) [U] |

same assay, conditions: Table 2, dimeric IAP antagonists

| Structure (SMILES) | Kd [nM] |
| --- | --- |
| CNC(C)C(=O)NC(C(=O)N1CC(O)CC1Cc1c(-c2c(CC3CC(O)CN3C(=O)C(NC(=O)C(C)NC)C(C)OC)c3ccc(F)cc3n2C2OC(C)C(O)C(O)C2O)[nH]c2cc(F)ccc12)C(C)OC (centres unmarked) [FF] | < 100 |
| CNC(C)C(=O)NC(C(=O)N1CCCC1Cc1c(-c2c(CC3CCCN3C(=O)C(NC(=O)C(C)NC)C(C)OC)c3ccc(F)cc3n2C2OC(C)C(O)C(O)C2O)[nH]c2cc(F)ccc12)C(C)OC (centres unmarked) [EE] | < 100 |
| CNC(C)C(=O)NC(C(=O)N1CCCC1Cc1c(-c2c(CC3CCCN3C(=O)C(NC(=O)C(C)NC)C(C)C)c3cc(F)ccc3n2C2OC(C)C(O)C(O)C2O)[nH]c2ccc(F)cc12)C(C)C (centres unmarked) [DD] | < 100 |
| CN[C@@H](C)C(=O)N[C@H](C(=O)N1CCC[C@H]1Cc1c(-c2c(C[C@@H]3CCCN3C(=O)[C@@H](NC(=O)[C@H](C)NC)C(C)C)c3cc(F)ccc3n2C2O[C@H](CO)[C@@H](O)[C@H](O)[C@H]2O)[nH]c2ccc(F)cc12)C(C)C (some centres unmarked) [CC] | < 100 |
| CN[C@@H](C)C(=O)N[C@H](C(=O)N1CCC[C@H]1Cc1c(-c2c(C[C@@H]3CCCN3C(=O)[C@@H](NC(=O)[C@H](C)NC)C(C)C)c3cc(F)ccc3n2C2O[C@H](CO)[C@H](O)[C@H](O)[C@H]2O)[nH]c2ccc(F)cc12)C(C)C (some centres unmarked) [AA] | < 100 |

Continued, values first:

| Kd [nM] | Structure (SMILES) |
| --- | --- |
| 100 to 1000 | CC(C)C(NC(=O)CN)C(=O)N1CCCC1Cc1c(-c2c(CC3CCCN3C(=O)C(NC(=O)CN)C(C)C)c3ccc(F)cc3n2C2OC(C)C(O)C(O)C2O)[nH]c2cc(F)ccc12 (centres unmarked) [W] |
| < 100 | CN[C@@H](C)C(=O)N[C@H](C(=O)N1CCCC1Cc1c(-c2c(C[C@@H]3CCCN3C(=O)[C@@H](NC(=O)[C@H](C)NC)C(C)C)c3ccc(F)cc3n2C2O[C@@H](C)[C@@H](O)[C@@H](O)[C@@H]2O)[nH]c2cc(F)ccc12)C(C)C (some centres unmarked) [V] |
| < 100 | CN[C@@H](C)C(=O)N[C@H](C(=O)N1CCC[C@H]1Cc1c(-c2c(C[C@@H]3CCCN3C(=O)[C@@H](NC(=O)[C@H](C)NC)C(C)C)c3ccc(F)cc3n2C2OC[C@@H](O)[C@H](O)[C@H]2O)[nH]c2cc(F)ccc12)C(C)C (some centres unmarked) [Y] |

same assay, conditions: Table 3, monomeric IAP antagonists (piperidine-substituted)

| Structure (SMILES) | Kd [nM] |
| --- | --- |
| CC[C@H](NC)C(=O)N[C@H](C(=O)N1CCC[C@H]1Cc1c(-c2ccc(F)cc2)n(C2CCNCC2)c2cc(F)ccc12)[C@@H](C)OC [JJ] | < 100 |
| CN[C@@H](C)C(=O)N[C@H](C(=O)N1CCC[C@H]1Cc1c(-c2ccc(F)cc2)n(C2CCNCC2)c2cc(F)ccc12)[C@@H](C)OC [II] | < 100 |
| CN[C@@H](C)C(=O)N[C@H](C(=O)N1CCCC1Cc1c(-c2ccc(F)cc2)n(C2CCNCC2)c2cc(F)ccc12)C(C)(C)C (some centres unmarked) [HH] | < 100 |

The next lines start with the values.

| Kd [nM] | Structure (SMILES) |
| --- | --- |
| < 100 | CN[C@@H](C)C(=O)N[C@H](C(=O)N1C[C@@H](O)C[C@H]1Cc1c(-c2ccc(F)cc2)n(C2CCNCC2)c2cc(F)ccc12)C(C)(C)C [LL] |
| 100 to 1000 | CCN[C@@H](C)C(=O)N[C@H](C(=O)N1C[C@@H](O)C[C@H]1Cc1c(-c2ccc(F)cc2)n(C2CCNCC2)c2cc(F)ccc12)C(C)(C)C [MM] |
| 100 to 1000 | CN[C@@H](CO)C(=O)N[C@H](C(=O)N1C[C@@H](O)C[C@H]1Cc1c(-c2ccc(F)cc2)n(C2CCNCC2)c2cc(F)ccc12)C(C)(C)C [NN] |
| < 100 | CCN[C@@H](C)C(=O)N[C@H](C(=O)N1C[C@@H](O)C[C@H]1Cc1c(-c2ccc(F)cc2)n(C2CCNCC2)c2cc(F)ccc12)[C@@H](C)OC [QQ] |
| < 100 | CN[C@@H](C)C(=O)N[C@H](C(=O)N1C[C@@H](O)C[C@H]1Cc1c(-c2ccc(F)cc2)n(C2CCNCC2)c2cc(F)ccc12)[C@@H](C)OC [PP] |
| 100 to 1000 | CN[C@H](C(=O)N[C@H](C(=O)N1CCC[C@H]1Cc1c(-c2ccc(F)cc2)n(C2CCNCC2)c2cc(F)ccc12)[C@@H](C)OC)C1CC1 [KK] |
| > 10000 | CN[C@H](C(=O)N[C@H](C(=O)N1C[C@@H](O)C[C@H]1Cc1c(-c2ccc(F)cc2)n(C2CCNCC2)c2cc(F)ccc12)C(C)(C)C)C1CC1 [OO] |
| < 100 | CC[C@H](NC)C(=O)N[C@H](C(=O)N1C[C@@H](O)C[C@H]1Cc1c(-c2ccc(F)cc2)n(C2CCNCC2)c2cc(F)ccc12)[C@@H](C)OC [RR] |
| 100 to 1000 | CN[C@H](C(=O)N[C@H](C(=O)N1C[C@@H](O)C[C@H]1Cc1c(-c2ccc(F)cc2)n(C2CCNCC2)c2cc(F)ccc12)[C@@H](C)OC)C1CC1 [SS] |
